# Laboratory results as given in PubChem BioAssay AID434951 (Broad Institute, 2010).
# Activity calls are given as the source filed them.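 Rule for the calls: active = a fitted half-maximal concentration EC50 for the rise in nuclear signal no higher than ten times the top dose tested; inconclusive = flat fit with activity between 30% and 70%, or unusable fit; inactive = EC50 beyond ten times the top dose.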
# Target: Hypoxia-inducible factor 1-alpha (Homo sapiens) (UniProt Q16665)
# Test: activators of HIF1alpha nuclear accumulation, confirmation, imaging, fluorescence, U2OS GFP-HIF1alpha (AID 434951)
# Settings: U2OS GFP-HIF1alpha nuclear intensity, high-content imaging
# Chain of Hypoxia-inducible factor 1-alpha (Homo sapiens) (Q16665 whole entry, looked up): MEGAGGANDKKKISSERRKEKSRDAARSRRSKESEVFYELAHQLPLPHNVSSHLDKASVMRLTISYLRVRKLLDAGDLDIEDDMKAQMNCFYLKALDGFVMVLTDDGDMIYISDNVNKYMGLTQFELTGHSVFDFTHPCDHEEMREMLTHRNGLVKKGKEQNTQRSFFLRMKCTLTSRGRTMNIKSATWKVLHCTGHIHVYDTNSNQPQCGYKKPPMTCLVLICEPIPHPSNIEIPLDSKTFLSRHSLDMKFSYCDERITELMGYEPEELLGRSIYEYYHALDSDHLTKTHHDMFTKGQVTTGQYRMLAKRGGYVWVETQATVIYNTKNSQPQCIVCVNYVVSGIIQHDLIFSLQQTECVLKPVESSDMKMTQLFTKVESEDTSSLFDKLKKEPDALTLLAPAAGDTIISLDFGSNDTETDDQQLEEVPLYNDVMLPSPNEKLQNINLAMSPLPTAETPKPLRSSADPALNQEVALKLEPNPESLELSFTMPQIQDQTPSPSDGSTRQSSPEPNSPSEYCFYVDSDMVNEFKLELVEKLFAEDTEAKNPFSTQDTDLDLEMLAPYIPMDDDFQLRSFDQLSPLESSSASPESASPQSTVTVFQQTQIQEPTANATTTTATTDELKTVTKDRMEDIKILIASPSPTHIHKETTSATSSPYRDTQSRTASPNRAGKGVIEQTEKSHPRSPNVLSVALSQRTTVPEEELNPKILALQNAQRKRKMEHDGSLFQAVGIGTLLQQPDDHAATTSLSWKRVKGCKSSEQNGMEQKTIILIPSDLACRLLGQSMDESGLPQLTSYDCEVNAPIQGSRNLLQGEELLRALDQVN
row,Structure (SMILES),EC50
1,O=c1c2ccccc2nc2c3ccccc3c(NCCN3CCOCC3)nn12,> 35 µM (inactive)
2,CC(C)c1onc(C(=O)Nc2sc3c(c2C#N)CCC3)c1[N+](=O)[O-],> 35 µM (inactive)
3,CC(=O)OCCCNc1cc(Sc2ccc(C)cc2)c2nonc2c1[N+](=O)[O-],> 35 µM (inactive)
4,O=C(c1cc2ccccc2o1)N1CCN(Cc2ccc3c(c2)OCO3)CC1,> 35 µM (inactive)
5,Cc1cc(SCC(=O)N/N=C/c2ccc(O)cc2O)c(C)cc1Br,32.3 µM
6,Cc1ccc(S(=O)(=O)N(C)CC(=O)NCCCn2ccnc2)cc1,> 35 µM (inactive)
7,C=CCSc1cc(C)nc2c(-c3ccccc3)cnn12,> 35 µM (inactive)
8,Oc1ccccc1/C=N/Nc1nc2ccccc2o1,8.18 µM
9,CCC(C)NCCOc1ccc(C)cc1[N+](=O)[O-] (stereo not drawn),> 35 µM (inactive)
10,CCCCNC(=O)CN1C(=O)COc2ccc(S(=O)(=O)N3CCCCCC3)cc21,> 35 µM (inactive)
11,O=C(NCC(=O)N(Cc1ccco1)C(C(=O)NC1CCCCC1)c1cccnc1)c1cccs1 (stereo not drawn),> 35 µM (inactive)
12,Cc1cccc(C)c1Nc1c(-c2ccccn2)nc2ccccn12,3.28 µM
13,COc1cccc(C(=O)CN2C(=O)C(C)(C)Oc3ccc(C(=O)N4CCOCC4)cc32)c1,> 35 µM (inactive)
14,CCOCCCNC(=S)Nc1cc(C)cc(C)c1,> 35 µM (inactive)
15,COc1ccc(C(=O)N2CCCCCC2)cc1S(=O)(=O)N1CCOCC1,> 35 µM (inactive)
16,Cc1ccc2nc(SCC(=O)N3CCCCC3)nc(=O)n2c1,> 35 µM (inactive)
17,Cc1cc(NC(=O)C2CC(=O)N(c3cccc(C)c3C)C2)no1 (stereo not drawn),33.3 µM
18,Nc1nc(-c2ccccn2)nc(N)c1Cc1ccc(Cl)cc1Cl,6.12 µM
19,Cc1nc([N+](=O)[O-])c(Br)n1Cc1ccc(Cl)c(Cl)c1,> 35 µM (inactive)
20,CC1(C)CC(=O)C(C=NCCN2CCN(C(=S)Nc3cccc(Cl)c3)CC2)=C(O)C1,> 35 µM (inactive)
21,CCCCNC(=S)Nc1ccc2cn[nH]c2c1,> 35 µM (inactive)
22,CCOc1ccc2c(c1)c1nnc(SCC3CCCO3)nc1n2C (stereo not drawn),> 35 µM (inactive)
23,C(=N\Nc1nc2ccccc2[nH]1)/c1cccc2nccnc12,15.8 µM
24,Oc1c(CN2CCc3ccccc3C2)cc(Cl)c2cccnc12,7.26 µM
25,CN(CC1CCCO1)S(=O)(=O)c1ccc(C(=O)Nc2nccs2)cc1 (stereo not drawn),> 35 µM (inactive)
26,O=C(c1cc(Br)ccc1Cl)N1CCC2(CC1)OCCO2,> 35 µM (inactive)

row,Structure (SMILES),EC50
1,CC1CCN(Cc2c(C(=O)N/N=C/c3ccccc3O)nnn2-c2nonc2N)CC1,> 35 µM (inactive)
2,CCOC(=O)c1c(S(=O)(=O)N2CCC(C)CC2)c(C)n(C)c1C,> 35 µM (inactive)
3,N/C(=N\OC(=O)C(c1ccccc1)c1ccccc1)c1cccnc1,> 35 µM (inactive)
4,CC(=O)c1cccc(N(C(=O)c2ccccn2)C(C(=O)NC2CCCCC2)c2ccccc2)c1 (stereo not drawn),> 35 µM (inactive)
5,Cc1ccc2[nH]c3c(=O)n(CC(=O)NCCCN(C)Cc4ccccc4)ncc3c2c1,> 35 µM (inactive)
6,Cn1c(SCC(=O)c2ccccc2)nnc1-c1ccco1,> 35 µM (inactive)
7,COC(=O)[C@H](CCSC)NC(=O)c1cccnc1SC,> 35 µM (inactive)
8,Cn1c(NN=O)nc2ccccc21,9.61 µM
9,Cc1nc(C(=O)Nc2ccc(Cl)cc2Cl)nn1-c1cc(OC(C)C)c(Cl)cc1Cl,> 35 µM (inactive)
10,CC(C)=NOC(=O)c1c(C)noc1-c1snnc1C,> 35 µM (inactive)
11,Cc1ccc(S(=O)(=O)/N=C2/NC(=O)/C(=C/c3cc([N+](=O)[O-])ccc3O)S2)cc1,> 35 µM (inactive)
12,O/N=C1/C2C3CC4C5C3C1C5C1(OCCO1)C42 (stereo not drawn),> 35 µM (inactive)
13,O=C1CCCC2=C1C(Cc1ccccc1)C1=C(CCCC1=O)O2,> 35 µM (inactive)
14,CCCn1c2ccccc2c2cnn(CC(=O)NC3CCCC(C)C3C)c(=O)c21 (stereo not drawn),7.26 µM
15,CC(C)c1ccc2oc(=O)cc(CN3CCOCC3)c2c1,> 35 µM (inactive)
16,O=C(NCCc1ccccc1)c1cc2sccc2n1Cc1ccccc1,> 35 µM (inactive)
17,COc1cccc(/C=N/Nc2ncnc3c2ncn3Cc2ccccc2)c1O,5.97 µM
18,CC(C)(C)c1ccc(N2C(=O)CC(C/C=C/c3ccccc3)C2=O)cc1 (stereo not drawn),> 35 µM (inactive)
19,CCN(CCN(C)C)C(=O)C1CCN(S(=O)(=O)c2c(C)noc2/C=C/c2ccccc2F)CC1,10.4 µM
20,CCCn1c(=NC(=O)c2c(-c3c(F)cccc3Cl)noc2C)c(C(=O)OCC)cc2c(=O)n3ccccc3nc21,22.2 µM
21,Cc1nc2ccccc2nc1N/N=C/c1ccc(O)cc1O,36.5 µM
22,O=C(N/N=C/c1ccccn1)c1ccc(Br)cc1,12.2 µM
23,COc1ccccc1N1CCN(Cc2ccc(O)c3ncccc23)CC1,5.41 µM
24,Cc1ccc2nc(SCC(=O)Nc3ccc(Br)cc3)nc(=O)n2c1,> 35 µM (inactive)
25,CCOc1ccc(C(=O)NCC2CCCO2)cc1OCC (stereo not drawn),> 35 µM (inactive)
26,O=C(N/N=C/c1cc(Br)ccc1O)C(=O)Nc1ccccc1OC(F)(F)C(F)F,35.2 µM

row,Structure (SMILES),EC50
1,Cc1cccnc1Nc1nc(-c2ccccn2)cs1,3.83 µM
2,CCCCn1c(N)c(N(CC)C(=O)c2cc(OC)cc(OC)c2)c(=O)[nH]c1=O,> 35 µM (inactive)
3,COc1cccc(/C=N/Nc2cc(-n3nc(C)cc3-c3ccccc3)ncn2)c1O,12.5 µM
4,Cc1cc(=O)oc2cc(OCC(=O)N3CCN(c4ccc(F)cc4)CC3)ccc12,> 35 µM (inactive)
5,Cc1cccc(-c2noc(CN(C)S(=O)(=O)c3cc(Cl)ccc3Cl)n2)c1,> 35 µM (inactive)
6,CCCCCN(C(=O)CCC(=O)OCC(=O)c1ccc(C(C)CC)cc1)c1c(N)n(CCCC)c(=O)[nH]c1=O (stereo not drawn),> 35 µM (inactive)
7,Cn1nnc(NC(=O)c2cccc([N+](=O)[O-])c2)n1,> 35 µM (inactive)
8,COc1ccc2cc(C(C)C(=O)N3CCC(C(N)=O)CC3)ccc2c1 (stereo not drawn),> 35 µM (inactive)
9,COC(CN(C(=O)CCl)C(C(=O)NC1CCCCC1)c1ccc(Cl)cc1)OC (stereo not drawn),19 µM
10,Cc1cc(S(=O)(=O)ON2C(=O)c3ccccc3C2=O)ccc1F,6.21 µM
11,O=C1N/C(=C/c2cccs2)C(=O)N1Cc1ccc(Br)cc1,> 35 µM (inactive)
12,Cc1ccc(Nc2c(-c3ccccn3)nc3cccc(C)n23)cc1,4.41 µM
13,O=C(CCCCCCC(=O)Nc1ccccc1)NO,5.94 µM
14,COc1cc2ccccc2cc1C(=O)NNC(=O)c1ccccc1O,> 35 µM (inactive)
15,O=C(NCC1CCCO1)c1cc(-c2ccccc2F)no1 (stereo not drawn),21.7 µM
16,S=C(Nc1ccc2cn[nH]c2c1)Nc1ccccc1Cl,> 35 µM (inactive)
17,CC1CCN(Cc2nnnn2CCCC(=O)NCCc2cnn(C)c2)CC1,> 35 µM (inactive)
18,O=C(CCN1C(=O)S/C(=C\c2ccc(F)cc2)C1=O)Nc1ccc(C(=O)O)c(O)c1,> 35 µM (inactive)
19,CC(C)(C)NC(=O)CN(Cc1ccc2c(c1)OCO2)C(=O)CNS(=O)(=O)c1ccc(F)cc1,> 35 µM (inactive)
20,CCOC(=O)N1CCC(Nc2c(-c3ccccc3)c(=O)c2=O)CC1,> 35 µM (inactive)
21,COC(=O)c1cn(C)c2ccc(S(=O)(=O)N3CCCCC3)cc2c1=O,> 35 µM (inactive)
22,COc1ccc(C(=O)Nc2ccccc2C(=O)N/N=C/c2ccccn2)cc1OC,10.6 µM
23,CC(OC(=O)c1ncc(Cl)c(Cl)c1Cl)C(=O)NC1(C#N)CCCCC1 (stereo not drawn),17.4 µM
24,Cc1nc2ccccc2n2c(-c3ccccc3)c3c(=O)n(C)c(=O)n(C)c3c12,> 35 µM (inactive)
25,CCC(=NCc1cc(OC)cc(OC)c1)c1c(O)[nH]c(=O)[nH]c1=O,> 35 µM (inactive)
26,Cc1ccccc1-n1c(=O)n(Cc2ccc(C(=O)O)cc2)c(=O)c2[nH]cnc21,> 35 µM (inactive)

row,Structure (SMILES),EC50
1,c1ccc(-c2nnc3sc(-c4cc5ccccc5o4)nn23)cc1,> 35 µM (inactive)
2,COc1cc(C(=O)Oc2ccccc2/C=N/NC(=O)c2ccc(Cl)cc2)cc(OC)c1OC,35.8 µM
3,CCN(CC)CCC(=O)Nc1cccc2c1C(=O)c1ccccc1C2=O,> 35 µM (inactive)
4,COc1ccc(NC(=O)C(=O)NNC(=O)c2ccc(Cl)cc2Cl)cc1,> 35 µM (inactive)
5,Nc1cc2c3c(cccc3c1)C(=O)N(CCN1CCCC1)C2=O,16.4 µM
6,O=C(N/N=C/c1c(O)ccc2ccccc12)c1cccnc1,0.678 µM
7,CN(/N=C/c1c[nH]c2ccccc12)c1cnn(-c2ccc(F)c(Cl)c2)c(=O)c1Cl,> 35 µM (inactive)
8,Cc1ccc2[nH]c(C(=O)N/N=C/c3ccccc3O)c(C)c2c1,7.06 µM
9,COCc1nnc(NC(=O)c2cc(Cl)ccc2OC)s1,> 35 µM (inactive)
10,CCN(CC)c1ccc(NC(=O)Cn2nnc(-c3cccc(OC)c3OC)n2)c(C)c1,> 35 µM (inactive)
11,CS(=O)(=O)c1ccc2nc(NC(=O)C3CC3)sc2c1,> 35 µM (inactive)
12,O=C(c1ccc(OC2CCN(CCc3ccccc3)CC2)cc1)N1CCCC(CCCO)C1 (stereo not drawn),> 35 µM (inactive)
13,Cc1cccc(CCNC(=O)Cn2ncc3c([nH]c4ccc(C)cc43)c2=O)c1,> 35 µM (inactive)
14,Cc1cc([N+](=O)[O-])nn1Cc1ccc(C(=O)N/N=C/c2ccc(O)cc2O)cc1,22.4 µM
15,Cc1ccc(O)c(NC(=O)c2ccc3c(c2)C(=O)N(Cc2ccco2)C3=O)c1,> 35 µM (inactive)
16,COc1cc(/C=C/C(=O)c2ccc3c(c2)OCCO3)cc(Br)c1OCC(=O)N(C)C,> 35 µM (inactive)
17,COc1ccc(OC)c2[nH]c(C(=O)N/N=C/c3ccccc3O)cc12,6.61 µM
18,O=C(/C=C/c1ccc2c(c1)OCO2)Nc1cccnc1,> 35 µM (inactive)
19,O=C(N/N=C/c1cc(Cl)cc(Cl)c1O)c1ccncc1,> 35 µM (inactive)
20,Cc1ccc(Nc2c3c(nc4ccccc24)CCC3)cc1,> 35 µM (inactive)
21,COc1ccc(NC(=S)Nc2ccccn2)c(OC)c1,> 35 µM (inactive)
22,Cc1[nH]n(-c2ccccc2)c(=O)c1N=Nc1ccc2c(c1)OCCO2,> 35 µM (inactive)
23,Oc1c(C(Nc2ccccn2)c2ccccn2)ccc2cccnc12 (stereo not drawn),3.98 µM
24,CN(Cc1cccc(C(F)(F)F)c1)C(=O)C1CCC(=O)N(CC2CCCCC2)C1 (stereo not drawn),> 35 µM (inactive)
25,Cc1nc(C)c(C(=O)N/N=C/c2cc(Br)ccc2O)s1,7.18 µM
